This is an account of results in BindingDB's records for doi:10.1021/acs.jmedchem.1c00920 (Astrazeneca, 2021).

This test concerns the target Tyrosine-protein kinase Mer (Homo sapiens) (UniProt Q12866). As to the kind of experiment: Inhibition of FLAG-tagged MER (unknown origin) transfected in Cos-7cells assessed as phosphorylation level incubated for 1 hr by ELISA. Background: In an ELISA, binding on a coated surface is turned into a signal by an enzyme label.

Tyrosine-protein kinase Mer (Homo sapiens), sequence (Q12866 whole entry, looked up): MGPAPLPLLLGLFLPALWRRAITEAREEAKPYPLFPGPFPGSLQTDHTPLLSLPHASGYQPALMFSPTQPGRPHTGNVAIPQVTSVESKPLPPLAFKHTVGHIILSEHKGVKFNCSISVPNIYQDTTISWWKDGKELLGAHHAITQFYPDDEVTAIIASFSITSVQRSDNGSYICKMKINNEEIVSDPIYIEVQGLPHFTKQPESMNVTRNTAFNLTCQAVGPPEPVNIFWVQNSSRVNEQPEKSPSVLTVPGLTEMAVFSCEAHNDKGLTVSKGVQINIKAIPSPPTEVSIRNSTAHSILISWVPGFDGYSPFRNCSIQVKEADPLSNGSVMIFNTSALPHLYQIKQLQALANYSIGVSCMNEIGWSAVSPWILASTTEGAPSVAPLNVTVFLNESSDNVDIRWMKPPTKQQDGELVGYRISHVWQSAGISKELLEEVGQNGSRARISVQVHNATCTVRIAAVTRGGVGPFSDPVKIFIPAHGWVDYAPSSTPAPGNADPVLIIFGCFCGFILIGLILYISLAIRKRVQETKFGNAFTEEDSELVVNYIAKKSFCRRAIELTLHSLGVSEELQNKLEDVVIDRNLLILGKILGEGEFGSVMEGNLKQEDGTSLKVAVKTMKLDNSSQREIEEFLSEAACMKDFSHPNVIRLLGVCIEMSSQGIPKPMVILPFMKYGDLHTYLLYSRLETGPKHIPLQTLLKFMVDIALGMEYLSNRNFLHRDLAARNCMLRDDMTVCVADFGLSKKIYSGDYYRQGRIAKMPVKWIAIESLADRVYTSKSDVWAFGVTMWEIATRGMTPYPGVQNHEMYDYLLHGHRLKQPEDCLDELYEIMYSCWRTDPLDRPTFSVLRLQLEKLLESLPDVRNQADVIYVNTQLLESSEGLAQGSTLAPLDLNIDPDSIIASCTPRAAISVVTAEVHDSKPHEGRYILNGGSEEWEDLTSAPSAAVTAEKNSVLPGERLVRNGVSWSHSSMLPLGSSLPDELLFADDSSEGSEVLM

As a reminder, the IC50 is the concentration that inhibits the measured activity by half. With `Cc1cc(-c2c(C)nn(C)c2C)cnc1-c1nnc(N(C)Cc2ccc3ncc(-c4ccc(CN(C)C)cc4)n3c2)o1`, the IC50 came out at 16 nM.

Regarding `Cc1cc(-c2c(C)nn(C)c2C)ccc1-c1nnc(N(C)Cc2ccc3ncc(-c4cnn(C)c4)n3c2)o1`, the IC50 came out at 13 nM.

For `Cc1cc(-c2c(C)nn(C)c2C)cnc1-c1nnc(N(C)Cc2ccc3nccn3c2)o1`, the IC50 amounted to 794 nM.

In the case of `Cc1cc(-c2c(C)n[nH]c2C)ccc1-c1nnc(N(C)Cc2ccc3nccn3c2)o1`, the IC50 was 2510 nM. Take `Cc1nc(-c2c(C)nn(C)c2C)ccc1-c1nnc(N(C)Cc2ccc3nccn3c2)o1`: the IC50 worked out at 1580 nM.

For `Cc1cc(-c2c(C#N)nn(C)c2C)ccc1-c1nnc(N(C)Cc2ccc3nccn3c2)o1`, the IC50 turned out to be 316 nM. Consider `Cc1nn(C)c(C)c1-c1ccc(-c2nnc(N(C)Cc3ccc4nccn4c3)o2)cc1`, for which the IC50 was 200 nM. For `Cc1cc(-c2c(C)nn(C)c2C)cnc1-c1nnc(N(C)Cc2ccc3ncc(-c4cnn(CCN(C)C)c4)n3c2)o1` the value was 200 nM; for `COc1cc(-c2c(C)nn(C)c2C)ccc1-c1nnc(N(C)Cc2ccc3nccn3c2)o1`, 501 nM; for `Cc1cc(-c2c(C)nc(C)n2C)ccc1-c1nnc(N(C)Cc2ccc3nccn3c2)o1`, 501 nM.

As for `Cc1cc(-c2cnn(C)c2C)ccc1-c1nnc(N(C)Cc2ccc3nccn3c2)o1`, the IC50 was 79 nM. Regarding `Cc1cc(-c2c(C)nn(C)c2C)cnc1-c1nnc(N(C)Cc2ccc3ncc(-c4ccc(CN(C)C)nc4)n3c2)o1`, the IC50 was 100 nM. In the case of `Cc1cc(-c2c(C)nn(C)c2C)ccc1-c1nnc(N(C)Cc2ccc3ncc(-c4ccccc4)n3c2)o1`, the half-maximal inhibitory concentration (IC50) stood at 32 nM. Turning to `Cc1cc(-c2c(C)nn(C)c2C)ccc1-c1nnc(N(C)Cc2ccc3nccn3c2)o1`, the half-maximal inhibitory concentration (IC50) is 32 nM. In the case of `Cc1nn(C)c(C)c1-c1ccc(-c2nnc(N(C)Cc3ccc4nccn4c3)o2)c(F)c1`, the IC50 was found to be 316 nM. Take `Cc1cc(-c2c(C)nn(C)c2C)ccc1-c1nnc(N(C)Cc2ccc3ncc(-c4cnn(CCN(C)C)c4)n3c2)o1`: the IC50 worked out at 20 nM. In the case of `Cc1cc(-c2c(C)nn(C)c2C)ccc1-c1nnc(N(C)Cc2ccc3ncc(C(=O)N(C)C)n3c2)o1`, the IC50 amounted to 32 nM. Take `CN1CCN(Cc2ccc(-c3ccc(CO[C@H]4CCC[C@@H]4NC(=O)c4cc(-c5cnn(C)c5)cnc4N)cc3)cc2)CC1` [US10125118, Example 172]: the IC50 was found to be 7.9 nM. Take `Cc1cc(-c2c(C)nn(C)c2C)ccc1-c1nnc(N(C)Cc2ccc3ncc(C4CCN(C)CC4)n3c2)o1`: the IC50 worked out at 251 nM. `Cc1cc(-c2c(C)nn(C)c2C)cnc1-c1nnc(N(C)Cc2ccc3ncc(-c4cccc(CN(C)C)c4)n3c2)o1`: the IC50 is 32 nM. Turning to `Cc1cc(-c2c(C)nn(C)c2C)cnc1-c1nnc(N(C)Cc2ccc3ncc(-c4ccc(CN(C)C)cn4)n3c2)o1`, the concentration for half-maximal inhibition (IC50) amounted to 13 nM.
